We go through five compounds from PMC10034064, “Expanding the apelin receptor pharmacological toolbox using novel fluorescent ligands” (Frontiers in Endocrinology, 2023).

Bridge positions count the residues as written; N and C are the ends. Peptide text beside a SMILES is read from it.

The target in assay [1] is T1, apelin receptor (Homo sapiens, UniProt P35414).
T1 sequence (P35414 1-380): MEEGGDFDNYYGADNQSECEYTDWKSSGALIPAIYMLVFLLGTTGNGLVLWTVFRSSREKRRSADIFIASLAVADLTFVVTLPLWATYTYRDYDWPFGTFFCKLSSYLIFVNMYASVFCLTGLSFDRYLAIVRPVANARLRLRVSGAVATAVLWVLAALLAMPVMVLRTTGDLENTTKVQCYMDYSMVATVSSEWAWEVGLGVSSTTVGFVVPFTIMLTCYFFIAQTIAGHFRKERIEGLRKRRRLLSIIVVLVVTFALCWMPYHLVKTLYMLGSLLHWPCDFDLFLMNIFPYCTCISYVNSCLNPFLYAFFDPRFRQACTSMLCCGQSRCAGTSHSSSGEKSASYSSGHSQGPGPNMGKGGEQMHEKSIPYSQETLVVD
The assay can be described thus: Fluorescent ligand binding (saturation, specificity, competition) in CHO-APLNR cells by high content imaging. Details: host or cells: CHO-K1.
Description: (§1) Cells were seeded in CellCarrier-96 Ultra Plates at a density of ~10 k/well. […] For time-course experiments, CHO-APLNR were treated with 300 nM of the fluorescent ligand for 0 – 90 mins, in the dark at room temperature. For saturation binding experiments, CHO-APLNR were treated with a concentration range of 1 – 300 nM of the fluorescent ligand for 90 mins, in the dark at room temperature. […] Untransfected CHO-K1 cells were also used as controls. […] At the end-points, CHO-APLNR were washed with HBSS before fixation with 4% formaldehyde. CHO-APLNR were washed with HBSS before treatment with Hoechst 33342 nuclear marker prepared at 10 µg/mL in HBSS for 15 mins. […] The software was also used to calculate binding affinities (Ki values) of competing ligands using the Cheng-Prusoff equation.
(§2) For imaging studies, cells in CellCarrier-96 Ultra Plates (PerkinElmer) were imaged using a 40x/NA1.1 water immersion objective. The device was set to measure an image field within each well, where the field is made up of a 4 x 4 or 5 x 5 grid of imaging regions (where each region is 250 x 250 μm in area). After using Z stacking to find an appropriate focal plane, cells were visualised and imaged at a focal depth of 0.5 μm above the bottom of the plate in all experiments. […]
(§3) Following image acquisition, several cell parameters were quantified using in-built Harmony High Content Imaging and Analysis Software (PerkinElmer). […] Intracellular fluorescence was calculated as fluorescence identified in the membrane collar subtracted from whole cell fluorescence. Mean fluorescence intensities were calculated for membrane and whole cell compartments in observed cells in the selected population, given as fluorescence units provided by Harmony software.

The target in assay [2] is T2, human apelin receptor (AGTRL1) (Homo sapiens, UniProt P35414).
T2 construct: host or cells: U2OS
T2 sequence (P35414 1-380): T1 sequence (P35414 1-380)
The assay is described as follows: PathHunter GPCR internalisation assay in U2OS cells. The assay is classed as cell-based. The conditions noted are these: U2OS cells overexpressing human apelin receptor, 90 mins, n = 3.
Description: Internalisation of apelin receptor following ligand treatment was determined using an in vitro PathHunter GPCR Internalisation Assay (Eurofins). The manufacturer’s protocol was modified in accordance with previous in-house optimisation. All reagents were provided in the assay kit. U2OS cells overexpressing human apelin receptor (AGTRL1) were seeded in cell plating reagent into 96-well plates and incubated for 48 h at 37°C, 5% CO2, humidified. To test novel fluorescent compounds for agonist activity, wells were treated with test compounds over a concentration range in Cell Plating Reagent to generate an 8-point concentration-response curve. Cells were then incubated for 90 mins at 37°C, 5% CO2, humidified before treatment with Working Detection Solution (Cell Assay Buffer, Substrate Reagent 1, Substrate Reagent 2), and incubation for 2 h at room temperature, protected from light. Plates were read in a chemiluminescence detecting LumiLITE Microplate Reader (DiscoveRx, Fremont, CA, USA). Responses, measured in Relative Light Units (RLU), were fitted to four parameter logistic concentration response curves in GraphPad Prism version 6.07 for Windows (GraphPad Software) to determine compound concentrations inducing half maximal response (EC50), and pD2 values (-log10 EC50) were calculated.

Assay [3] concerns the target T1, apelin receptor. The assay can be described thus: Fluorescent ligand binding in human kidney tissue sections.
Description: Frozen human kidney tissue sections (10 µm), were cut using a cryostat onto microscopy slides. […] Slides were washed with HBSS before fixation with 4% formaldehyde for 3 mins.
Automated fluorescent images (16 bit, 0.325 x 0.325 μm scaling per pixel) of fixed and mounted human tissue stained with fluorescent markers were acquired using an Axio Scan Z1 slide scanner (Zeiss) slide scanner with a Plan-Apochromat 20x/NA0.8 M27 objective lens connected to a Hamamatsu Orca Flash camera. An initial brightfield scan was performed to visualise tissue on slides, and a spline contour tool was used to outline the tissue to minimise the total region imaged. A profile with three fluorescent channels was used; a first channel (blue), with an LED-Module 385 nm light source set at 10% intensity and 10 ms exposure time at a depth of focus of 1.45 μm for Hoechst 33342 nuclear marker (405 nm wavelength); a second channel (green), with an LED-Module 475 nm light source set at 80% intensity and 30 ms exposure time at a depth of focus of 1.64 μm for 488 nm wavelengths; and a third channel (yellow/orange), an LED-Module 567 nm light source set at 80% intensity and 30 ms exposure time at a depth of focus of 1.88 μm for 555 nm wavelengths. Focal depths were determined by the slide scanner’s in-built Z stacking autofocusing. All acquired images were saved and visualised using ZEN software (Zeiss) and/or Orbit Image Analysis (ORBIT) software. Regions of interest were identified using the spline contour, and mean fluorescent signal (in grayscales) was provided by ZEN software (Zeiss).
In assay [4] the target is T1, apelin receptor. The assay is described as follows: Dynamic mass redistribution assay in CHO-APLNR cells. The assay is classed as cell-based. Conditions: maximal change in peak wavelength value from baseline, n = 3. Details: host or cells: CHO-K1.
Description: Apelin receptor downstream signalling was determined using an in vitro BIND technology dynamic mass redistribution assay (SRU Biosystems). CHO-APLNR cells were seeded in 96-well biosensor plates (SRU Biosystems) at a density of 50K/well, maintained in 95 µL feeding media, and incubated for 24 h at 37°C, 5% CO2, humidified. The following day, the plate was loaded onto the SRU Biosystems BIND PROFILER TURBO reader, and left to acclimatise to room temperature for 20 mins before a baseline read was taken over 10 mins. To test novel fluorescent compounds for agonist activity, cells were treated with test compounds (5 µL additions in PBS) over a concentration range to generate an 8-point concentration-response curve. The biosensor plate was read for a subsequent 60 mins. Responses, measured in maximal change in peak wavelength value from baseline (ΔPWV), were fitted to four parameter logistic concentration response curves in GraphPad Prism version 6.07 for Windows (GraphPad Software) to determine compound concentrations inducing half maximal response (EC50), and pD2 values (-log10 EC50) were calculated.
Assay [5] addresses T1, apelin receptor. The assay is described as follows: Radioligand competition binding against [125I]-apelin-13 in human left ventricle homogenate. Also on record: Surgical samples of human left ventricle (HLV) tissue were obtained with informed consent; from tissue; host or cells: human left ventricle homogenate. Conditions: apelin ligands vs [Pyr1]apelin-13; ELA ligands vs ELA-14.
Description: Surgical samples of human left ventricle (HLV) tissue were obtained with informed consent and ethical approval (05/Q104/142). Tissues were snap frozen in liquid nitrogen before storage at -80°C. On the day of preparation, tissue was chopped finely with a razor blade on ice, before subsequent homogenisation using a Polytron Homogenizer (Thomas Scientific), in homogenisation buffer (50 mM Tris-HCl, 5 mM MgCl2, 5 mM EDTA, 1 mM EGTA, 1:500 protease inhibitor cocktail containing aprotinin and amastatin, balanced at pH 7.4) at 4°C. The resulting homogenate was subsequently spun at 1000 xg for 2 mins at 4°C. Supernatant was transferred to another set of tubes (pellet discarded) for a high speed spin at 40,000 xg, for 30 mins at 4°C. Supernatant was then discarded, and the remaining pellet resuspended in 2.5 mL/g of homogenisation buffer, before a second high speed spin at 40,000 xg, for 30 mins at 4°C. The supernatant was discarded, and the remaining pellet was resuspended in HEPES buffer (50 mM HEPES, balanced at pH 7.4 at room temperature) and stored in the freezer at -70°C until use in assays.
The radiolabel has a specific activity of 2200 Ci/mmol. […]
Total binding was determined in the absence of competing fluorescent ligand. […] Radioactivity in pellets was counted using a Cobra II model 5003 gamma counter (Packard). […]

The subject of assay [6] is apelin receptor. The assay can be described thus: Fluorescent ligand binding (saturation, specificity, competition) in CHO-APLNR cells by high content imaging. Conditions: 300 nM apelin647, wild-type CHO-K1 cells without apelin receptor.
Description: as §1, §2, §3
The mark [7] stands for this setting: 1 µM fluorescent ligand alone, human kidney sections, 30 mins.
[8] abbreviates: 1 µM fluorescent ligand plus 10 µM [Pyr1]apelin-13 (apelin488) or ELA-14 (ELA488).

Turning to `CCC(CC)n1c(Cc2cccs2)nc2cc(C(=O)N[C@H](CC(=O)O)CC(C)C)ccc21` [CMF-019], the pKi on apelin receptor [1] came out at 5.91.
Take `CSCC[C@H](NC(=O)[C@H](CS)NC(=O)[C@H](CCCNC(=N)N)NC(=O)[C@H](CCCNC(=N)N)NC(=O)[C@H](CCC(N)=O)NC(=O)CCOCCOCCOCCOCCNC(=O)c1ccc(-c2c3ccc(=N)c(S(=O)(=O)O)c-3oc3c(S(=O)(=O)O)c(N)ccc23)c(C(=O)O)c1)C(=O)N1CCC[C@H]1C(=O)N[C@@H](CC(C)C)C(=O)N[C@@H](Cc1c[nH]cn1)C(=O)N[C@@H](CO)C(=O)N[C@@H](CCCNC(=N)N)C(=O)N[C@H](C(=O)N1CCC[C@H]1C(=O)N[C@@H](Cc1ccccc1)C(=O)N1CCC[C@H]1C(=O)O)C(C)C` [ELA488]: the Emax in assay [2] came to 169693 ± 9461 RLU. Besides, on apelin receptor [3] (setting [7]), the “mean fluorescence in renal blood vessels” value came out at 18869 ± 5968 grayscales and the “mean fluorescence in tubular structures of the renal cortex” value was 7392 ± 1338 grayscales. Besides, at apelin receptor [3] (setting [8]), the “mean fluorescence in renal blood vessels in the presence of unlabelled parent ligand” value is given as 7946 ± 3656 grayscales and the “mean fluorescence in tubular structures of the renal cortex in the presence of unlabelled parent ligand” value stood at 2458 ± 801 grayscales. Moreover, the Emax on apelin receptor [4] is listed as 240.32 ± 27.91 ΔPWV. In addition, the “binding affinity fold lower than the unlabelled endogenous parent ligand” value at apelin receptor [5] is given as ~ 23 fold.
As for `CSCC[C@H](NC(=O)[C@H](CS)NC(=O)[C@H](CCCNC(=N)N)NC(=O)[C@H](CCCNC(=N)N)NC(=O)[C@H](CCC(N)=O)NC(=O)CCOCCOCCOCCOCCNC(=O)CCCCCC1(C)C(=CC=CC=CC2=[N+](CCCS(=O)(=O)[O-])c3ccc(S(=O)(=O)O)cc3C2(C)C)N(CCCS(=O)(=O)O)c2ccc(S(=O)(=O)O)cc21)C(=O)N1CCC[C@H]1C(=O)N[C@@H](CC(C)C)C(=O)N[C@@H](Cc1c[nH]cn1)C(=O)N[C@@H](CO)C(=O)N[C@@H](CCCNC(=N)N)C(=O)N[C@H](C(=O)N1CCC[C@H]1C(=O)N[C@@H](Cc1ccccc1)C(=O)N1CCC[C@H]1C(=O)O)C(C)C` (stereo partly shown) [ELA647], the Emax is on record as 128992 ± 6218 RLU in assay [2] and 185.23 ± 36.82 ΔPWV at apelin receptor [4]. In addition, the “binding affinity fold lower than the unlabelled endogenous parent ligand” value on apelin receptor [5] was ~ 58 fold.
With `CC(C)C[C@@H]1NC(=O)[C@H](CCCNC(=N)N)NC(=O)[C@@H]2CCCN2C(=O)[C@H](CCCNC(=N)N)NC(=O)[C@@H](NC(=O)[C@H](Cc2c[nH]cn2)NC(=O)[C@H](CCCCN)NC(=O)[C@@H]2CSSC[C@H](N)C(=O)N[C@@H](CCCNC(=N)N)C(=O)N3CCC[C@H]3C(=O)N[C@@H](CCCNC(=N)N)C(=O)N[C@@H](CC(C)C)C(=O)N2)CSSC[C@@H](C(=O)O)NC1=O` [MM54] (H-CRPRLCKHCRPRLC-OH; disulfide 1-6, 9-14), the inhibition constant (Ki) at apelin receptor [1] is 5.75 µM.
`CCCC[C@H](NC(=O)[C@@H]1CCCN1C(=O)CNC(=O)[C@H](CCCCN)NC(=O)[C@H](Cc1c[nH]cn1)NC(=O)[C@H](CO)NC(=O)[C@H](CC(C)C)NC(=O)[C@H](CCCNC(=N)N)NC(=O)[C@@H]1CCCN1C(=O)[C@H](CCCNC(=N)N)NC(=O)[C@H](CCC(N)=O)NC(=O)CCOCCOCCOCCOCCNC(=O)CCCCCC1(C)C(=CC=CC=CC2=[N+](CCCS(=O)(=O)[O-])c3ccc(S(=O)(=O)O)cc3C2(C)C)N(CCCS(=O)(=O)O)c2ccc(S(=O)(=O)O)cc21)C(=O)N1CCC[C@H]1C(=O)N[C@@H](Cc1ccc(OCc2ccccc2)cc1)C(=O)O` (stereo partly shown) [apelin647]: in the assay on apelin receptor [6], the “binding in wild-type CHO-K1 cells” value was determined as 0.70 ± 0.45 mean fluorescence.
